Assay results published in patent US10563263B2, “Genetic polymorphisms associated with statin response and cardiovascular diseases, methods of detection and uses thereof” (CELERA CORPORATION, priority 2010, dated 2020).

Test system: revascularization, unstable angina requiring hospitalization, MI, all causes of death, or stroke
Assay: PROVE IT-TIMI 22: SNP by treatment interaction (high-dose atorvastatin vs standard-dose pravastatin), logistic regression (synergy index), primary composite endpoint
Format: in vivo, human
Conditions: atorvastatin vs pravastatin; for OR (SNP by treatment interaction, logistic regression): PROVE-IT; for OR: PROVEIT

With `CC(C)c1c(C(=O)Nc2ccccc2)c(-c2ccccc2)c(-c2ccc(F)cc2)n1CC[C@@H](O)C[C@@H](O)CC(=O)O` [Atorvastatin, atorvastatin] the “OR (SNP by treatment interaction, logistic regression)” value (rs992695, Imputed, allele C (A1), model DOM, NMISS 442) was 1.216, the “OR (SNP by treatment interaction, logistic regression)” value (rs9866421, Genotyped, allele C (A1), model REC, NMISS 443) was 0.5895 and the “OR (SNP by treatment interaction, logistic regression)” value (rs9881685, Imputed, allele A (A1), model ADD, NMISS 440) was 1.041. For the same molecule, the “OR (SNP by treatment interaction, logistic regression)” value (rs9881685, Imputed, allele A (A1), model DOM, NMISS 440) was 1.041, the “OR (SNP by treatment interaction, logistic regression)” value (rs9936999, Imputed, allele G (A1), model DOM, NMISS 266) was 0.7758 and the OR (marker rs2574, cohort, model rec, End-point CVD) was 1.62. For the same molecule, the OR (marker rs7508, caseonly, model dom, End-point CHD) was 1.65, the OR (marker rs198464, cohort, model rec, End-point CHD) was 1.44 and the OR (marker rs198476, caseonly, model rec, End-point CHD) was 1.85. The OR (marker rs264122, cohort, model dom, End-point CHD) was 0.72, the OR (marker rs271046, caseonly, model rec, End-point CVD) was 0.68 and the OR (marker rs494111, caseonly, model rec, End-point CHD) was 0.44. It also gave an OR (marker rs498657, caseonly, model add, End-point CHD) of 1.57, an OR (marker rs619825, caseonly, model rec, End-point CHD) of 0.40 and an OR (marker rs646749, caseonly, model rec, End-point CHD) of 0.40. It also gave an OR (marker rs694780, caseonly, model rec, End-point CHD) of 0.40, an OR (marker rs892162, caseonly, model rec, End-point CHD) of 0.64 and an OR (marker rs974950, cohort, model dom, End-point CVD) of 0.64. The OR (marker rs996022, caseonly, model rec, End-point CHD) was 0.41, the OR (marker rs1003322, caseonly, model dom, End-point CHD) was 1.41 and the OR (marker rs1009748, cohort, model add, End-point CVD) was 1.43. The OR (marker rs1136046, caseonly, model add, End-point CVD) was 1.48, the OR (marker rs1190706, cohort, model dom, End-point CVD) was 0.76 and the OR (marker rs1266489, cohort, model dom, End-point CVD) was 0.67. It also gave an OR (marker rs1336400, cohort, model dom, End-point CHD) of 1.46, an OR (marker rs1344081, caseonly, model dom, End-point CVD) of 1.31 and an OR (marker rs1450092, caseonly, model add, End-point CHD) of 0.81. The OR (marker rs1524962, caseonly, model add, End-point CHD) was 0.80, the OR (marker rs1566221, cohort, model add, End-point CHD) was 0.68 and the OR (marker rs1727746, cohort, model dom, End-point CVD) was 1.30. The OR (marker rs1798093, cohort, model rec, End-point CHD) was 2.00, the OR (marker rs1942876, caseonly, model rec, End-point CHD) was 0.41 and the OR (marker rs2011318, caseonly, model add, End-point CHD) was 0.63. It also gave an OR (marker rs2060022, caseonly, model rec, End-point CVD) of 0.72, an OR (marker rs2108425, cohort, model dom, End-point CHD) of 0.77 and an OR (marker rs2110564, cohort, model dom, End-point CVD) of 0.60. It also gave an OR (marker rs2113334, caseonly, model rec, End-point CVD) of 0.29, an OR (marker rs2327412, cohort, model add, End-point CVD) of 1.38 and an OR (marker rs2505039, cohort, model add, End-point CHD) of 0.84. It also gave an OR (marker rs2588350, cohort, model add, End-point CVD) of 0.82, an OR (marker rs2648694, cohort, model rec, End-point CVD) of 1.72 and an OR (marker rs2655222, caseonly, model rec, End-point CHD) of 0.23. It also gave an OR (marker rs2657940, caseonly, model add, End-point CHD) of 1.20, an OR (marker rs2993156, caseonly, model dom, End-point CVD) of 0.75 and an OR (marker rs3763978, cohort, model add, End-point CVD) of 0.84. For the same molecule, the OR (marker rs4038018, caseonly, model dom, End-point CHD) was 0.76, the OR (marker rs4240808, caseonly, model rec, End-point CVD) was 0.56 and the OR (marker rs4242281, caseonly, model rec, End-point CVD) was 2.08. It also gave an OR (marker rs4420312, caseonly, model dom, End-point CHD) of 0.59, an OR (marker rs4472926, caseonly, model dom, End-point CHD) of 0.53 and an OR (marker rs4660234, cohort, model dom, End-point CHD) of 1.45. The OR (marker rs4787415, caseonly, model rec, End-point CHD) was 0.62, the OR (marker rs4807536, caseonly, model dom, End-point CVD) was 1.53 and the OR (marker rs4836745, caseonly, model dom, End-point CVD) was 0.65. The OR (marker rs4870109, caseonly, model rec, End-point CVD) was 1.97, the OR (marker rs6427807, cohort, model dom, End-point CVD) was 0.66 and the OR (marker rs6539231, caseonly, model dom, End-point CVD) was 0.68. For the same molecule, the OR (marker rs6563805, caseonly, model add, End-point CHD) was 0.53, the OR (marker rs6585412, cohort, model dom, End-point CVD) was 1.39 and the OR (marker rs6685920, cohort, model dom, End-point CVD) was 1.45. The OR (marker rs6998016, caseonly, model rec, End-point CHD) was 6.19, the OR (marker rs7018577, caseonly, model dom, End-point CHD) was 1.44 and the OR (marker rs7070244, caseonly, model add, End-point CVD) was 1.30. For the same molecule, the OR (marker rs7078016, cohort, model dom, End-point CVD) was 1.41, the OR (marker rs7222186, caseonly, model dom, End-point CHD) was 0.50 and the OR (marker rs7276749, cohort, model dom, End-point CVD) was 0.45. For the same molecule, the OR (marker rs7332076, caseonly, model rec, End-point CVD) was 2.40, the OR (marker rs7338174, caseonly, model dom, End-point CHD) was 2.50 and the OR (marker rs7449527, caseonly, model dom, End-point CHD) was 1.53. The OR (marker rs7710039, caseonly, model dom, End-point CVD) was 0.70, the OR (marker rs7839562, caseonly, model dom, End-point CHD) was 1.54 and the OR (marker rs7916629, caseonly, model rec, End-point CVD) was 2.11. The OR (marker rs7918692, caseonly, model dom, End-point CVD) was 1.48, the OR (marker rs7959965, caseonly, model add, End-point CVD) was 0.74 and the OR (marker rs8129810, cohort, model dom, End-point CVD) was 0.45. It also gave an OR (marker rs9478241, caseonly, model rec, End-point CVD) of 2.08, an OR (marker rs9914580, caseonly, model dom, End-point CHD) of 0.51 and an OR (marker rs10012485, cohort, model dom, End-point CVD) of 0.54. It also gave an OR (marker rs10497883, caseonly, model add, End-point CHD) of 0.68, an OR (marker rs10518335, caseonly, model dom, End-point CVD) of 0.55 and an OR (marker rs10774580, caseonly, model dom, End-point CHD) of 0.63. It also gave an OR (marker rs10945874, cohort, model add, End-point CVD) of 1.72, an OR (marker rs11138314, cohort, model add, End-point CHD) of 0.64 and an OR (marker rs11585647, caseonly, model dom, End-point CVD) of 0.49. The OR (marker rs11721179, caseonly, model dom, End-point CVD) was 0.64, the OR (marker rs11734256, cohort, model rec, End-point CVD) was 0.57 and the OR (marker rs12048902, caseonly, model add, End-point CVD) was 0.72. For the same molecule, the OR (marker rs12341095, cohort, model rec, End-point CHD) was 1.63, the OR (marker rs12646525, cohort, model dom, End-point CVD) was 0.59 and the OR (marker rs12679254, caseonly, model dom, End-point CVD) was 0.79. For the same molecule, the OR (marker rs12817873, cohort, model add, End-point CVD) was 0.85, the OR (marker rs13107334, cohort, model dom, End-point CVD) was 0.53 and the OR (marker rs13126170, caseonly, model dom, End-point CVD) was 0.53.
